Results reported in patent US7704514B2 (priority 2003, dated 2010).
No end group written: not given here.

What was measured:
[1] = system: HCV-peptide specific IFN-γ production by CD4+ and CD8+ T cells; format: in vivo, HLA-A*0201 transgenic mice (HHD.1); conditions: HHD.1 mice; co-injection of the five HCV-derived peptides (20 μg each) with KLK 10 nmol/o-d(IC)13 0.4 nmol s.c. days 0, 14, 28; day 35
Procedure: Experimental setup (5 mice/group): • 1. HCV peptides • 2. HCV peptides+KLK+o-d(IC)13
On days 0, 14 and 28 HHD.1 mice were injected s.c. into both hind footpads with a total volume of 100 μl/mouse (50 μl/footpad) containing the above listed compounds. At day 35 (7 days after last vaccination) CD4^+ as well as CD8^+ T cells were isolated by magnetic separation (MACS, Miltenyi) from single cell suspensions of spleen cells. T cells were incubated with medium (background control) or were restimulated with irradiated spleen cells from naïve HHD.1 mice as APC in the presence of either the different peptides used for vaccination or the irrelevant peptide p1274. After overnight incubation, the IFN-γ production was analyzed using an ELIspot assay.

[2] = system: peptide-specific IFN-γ producing cells; set-up: species or system C57B1/6 mice; conditions: mouse, in vivo, sc
[3] = system: Staphylococcus aureus; conditions: literature (Nakajima 1997; Cho 1999); cited from earlier work
[4] = system: human neutrophils; conditions: cited from earlier work
[5] = system: Influenza vaccine (Fluvirin)-specific IgG1 and IgG2b antibodies; set-up: species or system C57BL/6 mice; conditions: mouse, in vivo, sc
[6] = system: HBsAg-specific IFN-γ and IL-4 production; format: in vivo, C57BL/6 mice; conditions: C57BL/6, s.c. flank day 0 and 56; co-injected with HBsAg 5 μg/mouse; Alum, pR and KLK: after boost
Procedure: Experimental setup (5 mice/group/timepoint): • 1. HBsAg • 2. HBsAg+Alum • 3. HBsAg+I-ODN 2 • 4. HBsAg+I-ODN 2b • 5. HBsAg+o-d(IC)13 • 6. HBsAg+pR • 7. HBsAg+KLK • 8. HBsAg+pR+I-ODN 2 • 9. HBsAg+pR+I-ODN 2b • 10. HBsAg+pR+o-d(IC)13 • 11. HBsAg+KLK+I-ODN 2 • 12. HBsAg+KLK+I-ODN 2b • 13. HBsAg+KLK+o-d(IC)13
On day 0 and day 56 mice were injected subcutaneously into the right flank with a total volume of 100 μl/mouse containing the above mentioned compounds. The analysis of the immune response was performed at day 7, day 21 and day 50 after first and second injection, respectively. Spleen cells of five mice per group per time point were restimulated ex vivo with 10 μg/ml HBsAg and ELIspot assays were performed in order to analyse the HBsAg-specific IFN-γ (type 1 immune response) as well as IL-4 (type 2 immune response) production.

Which “IFN-γ produced by CD4+ T cells against the peptide (ELIspot)” value (“IFN-γ produced by CD4+ T cells” for short) [1] does the source give for CINGVCWTV [p89] here?
Its value is “high amounts”.

And the “IFN-γ production by CD8+ T cells against the peptide (ELIspot)” value [1]?
Its value is “strong”.

With DLMGYIPAV [p87] as the substance, how does the “IFN-γ produced by CD4+ T cells” value [1] read?
Its value is “high amounts”.

What about the “IFN-γ production by CD8+ T cells against the peptide (ELIspot)” value [1] of the same substance?
Its value is “strong”.

Which “IFN-γ produced by CD4+ T cells” value [1] does the source give for GYKVLVLNPSVAAT [p84] here?
The value was “high amounts”.

With HMWNFISGIQYLAGLSTLPGNPA [p1426] as the substance, how does the “IFN-γ produced by CD4+ T cells” value [1] read?
Its value is “high amounts”.

With IASNENMETM [p1574, reference compound] as the substance, how does the “peptide-specific IFN-γ spots of spleen cells after restimulation with the respective peptide (ELIspot)” value (“peptide-specific IFN-γ spots” below) [2] read?
The value was “do not show any specific spots”.

Which results are given for KLKLLLLLKLK-NH2?
chemotherapeutic activity in Staphylococcus aureus-infected mice [3]: significant chemotherapeutic activity; production of the superoxide anion (O2−) by human neutrophils via cell surface calreticulin [4]: activated to produce the superoxide anion

Which results are given for KLKLLLLLKLK-OH?
Influenza vaccine-specific IgG1 (type 2 response), serum ELISA [5]: induces the production of Influenza vaccine-specific IgG1; Influenza vaccine-specific IgG2b (humoral type 1 response), serum ELISA [5]: no specific IgG2b response is detectable; HBsAg-specific IL-4 production (type 2 immune response) compared to injection of HBsAg alone, spleen cell ELIspot [6]: Slightly increased

For “Poly-L-Arginine [pR, reference compound]”, which “Influenza vaccine-specific IgG2b (humoral type 1 response), serum ELISA” value [5] is on record?
The value was “no specific IgG2b response is detectable”.

What about the “HBsAg-specific IL-4 production (type 2 immune response) compared to injection of HBsAg alone, spleen cell ELIspot” value [6] of the same substance?
Its value is “Slightly increased”.

With SSIAAQDAL [p1600] as the substance, how does the “peptide-specific IFN-γ spots” value [2] read?
Its value is “do not show any specific spots”.

For TMLYNKMEF [p1569], which “peptide-specific IFN-γ spots” value [2] is on record?
Its value is “specifically release IFN-γ”.

For VTILNLALL [p1664], which “peptide-specific IFN-γ spots” value [2] is on record?
The value was “specifically release IFN-γ”.
